The target in this assay is TBK1 (Homo sapiens (Human), UniProt Q9UHD2). The assay can be described thus: TBK1 low ATP kinase assay (in vitro assay 1). Format: biochemical. The conditions noted are these: in vitro assay 1, read-out: TBK1 low ATP kinase assay IC50.

This note sets out measurements from patent US10894784B2, “Heteroarylbenzimidazole compounds” (BAYER PHARMA AKTIENGESELLSCHAFT, priority 2015, dated 2021).

Chain of TBK1 (Q9UHD2 whole entry): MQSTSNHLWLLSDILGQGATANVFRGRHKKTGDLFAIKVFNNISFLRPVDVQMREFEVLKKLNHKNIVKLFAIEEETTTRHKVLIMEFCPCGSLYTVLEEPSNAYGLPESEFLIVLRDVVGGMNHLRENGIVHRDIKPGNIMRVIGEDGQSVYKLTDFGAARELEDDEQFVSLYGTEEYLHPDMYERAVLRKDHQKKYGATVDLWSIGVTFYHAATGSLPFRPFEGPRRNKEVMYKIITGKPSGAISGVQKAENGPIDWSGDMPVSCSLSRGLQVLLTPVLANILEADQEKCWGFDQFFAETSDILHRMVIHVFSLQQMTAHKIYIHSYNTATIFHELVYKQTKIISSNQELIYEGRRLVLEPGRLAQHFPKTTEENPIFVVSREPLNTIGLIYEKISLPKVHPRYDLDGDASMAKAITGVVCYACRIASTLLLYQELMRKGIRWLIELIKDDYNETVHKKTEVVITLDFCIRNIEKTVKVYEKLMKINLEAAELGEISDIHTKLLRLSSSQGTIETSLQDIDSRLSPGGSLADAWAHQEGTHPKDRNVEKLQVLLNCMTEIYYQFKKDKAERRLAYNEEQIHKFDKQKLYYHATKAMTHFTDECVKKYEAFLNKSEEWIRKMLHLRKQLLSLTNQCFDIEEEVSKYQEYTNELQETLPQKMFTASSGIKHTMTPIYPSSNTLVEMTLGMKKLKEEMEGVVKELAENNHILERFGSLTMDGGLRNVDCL

One may read the IC50 as the concentration that inhibits the measured activity by half. For `CCC(C)c1noc(-c2ccc3nc(Nc4cc(CN5CCN(C(=O)C6CC6)CC5)ccn4)[nH]c3c2)n1` (centres unmarked) [Example 20.01, (4-{[2-({6-[3-(butan-2-yl)-1,2,4-oxadiazol-5-yl]-1H-benzimidazol-2-yl}amino)pyridin-4-yl]methyl}piperazin-1-yl)(cyclopropyl)methanone], the IC50 is 685 nM. In the case of `CC(c1ccnc(Nc2nc3ccc(-c4ccncn4)cc3[nH]2)c1)N1CCN(C(=O)C2CCC2)CC1` (racemic) [Example 23.04.01, (rac)-cyclobutyl{4-[1-(2-{[6-(pyrimidin-4-yl)-1H-benzimidazol-2-yl]amino}pyridin-4-yl)ethyl]piperazin-1-yl}methanone], the IC50 was found to be 3.44 nM. Regarding `COc1cnc(OCC2CC2)nc1-c1ccc2nc(Nc3cc(CN4CCN(C(=O)OC(C)(C)C)CC4)ccn3)[nH]c2c1` [Example 64.01.01, tert-butyl 4-{[2-({6-[2-(cyclopropylmethoxy)-5-methoxypyrimidin-4-yl]-1H-benzimidazol-2-yl}amino)pyridin-4-yl]methyl}piperazine-1-carboxylate], the IC50 stood at 217 nM. The figure for `CC(c1ccnc(Nc2nc3ccc(-c4cnn(CC5CCC5)c4)c(F)c3[nH]2)c1)N1CCN(C(=O)CC(F)(F)F)CC1` (single isomer, unassigned) [Example 171.02, 1-(4-{(1R or 1S)-1-[2-({6-[1-(cyclobutylmethyl)-1H-pyrazol-4-yl]-7-fluoro-1H-benzimidazol-2-yl}amino)pyridin-4-yl]ethyl}piperazin-1-yl)-3,3,3-trifluoropropan-1-one] is 5.95 nM; for `CN(c1cc(-c2ccc3nc(Nc4cc(CN5CCN(C(=O)OC(C)(C)C)CC5)ccn4)[nH]c3c2)ncn1)C1CC1` [Example 157.01, tert-butyl 4-({2-[(6-{6-[cyclopropyl(methyl)amino]pyrimidin-4-yl}-1H-benzimidazol-2-yl)amino]pyridin-4-yl}methyl)piperazine-1-carboxylate] it is 25 nM; for `Cc1noc(-c2ccc3nc(Nc4cc(CN5CCN(C(=O)CC(F)(F)F)C[C@H]5C)ccn4)[nH]c3c2)n1` [Example 16.03.02, 3,3,3-trifluoro-1-{(3R)-3-methyl-4-[(2-{[6-(3-methyl-1,2,4-oxadiazol-5-yl)-1H-benzimidazol-2-yl]amino}pyridin-4-yl)methyl]piperazin-1-yl}propan-1-one] it is 63.1 nM. In the case of `CC(c1ccnc(Nc2nc3ccc(-c4cc(C(F)F)ncn4)cc3[nH]2)c1)N1CCN(C(=O)OC(C)(C)C)CC1` (single isomer, unassigned) [Example 174.01, tert-butyl 4-{(1R or 1S)-1-[2-({6-[6-(difluoromethyl)pyrimidin-4-yl]-1H-benzimidazol-2-yl}amino)pyridin-4-yl]ethyl}piperazine-1-carboxylate], the IC50 was 11.1 nM. Take `Cc1nccc(-c2ccc3nc(Nc4cc(CN5CCN(C(=O)OC(C)(C)C)CC5)ccn4)[nH]c3c2)c1Cl` [Example 130.01, tert-butyl 4-[(2-{[6-(3-chloro-2-methylpyridin-4-yl)-1H-benzimidazol-2-yl]amino}pyridin-4-yl)methyl]piperazine-1-carboxylate]: the IC50 amounted to 890 nM. In the case of `CC(C)Nc1ncnc(-c2ccc3nc(Nc4cc(CN5CCN(C(=O)C6CC6)CC5)ccn4)[nH]c3c2)c1F` [Example 193.03, cyclopropyl(4-{[2-({6-[5-fluoro-6-(propan-2-ylamino)pyrimidin-4-yl]-1H-benzimidazol-2-yl}amino)pyridin-4-yl]methyl}piperazin-1-yl)methanone], the IC50 stood at 17.8 nM. The figure for `CC(c1ccnc(Nc2nc3ccc(-c4cnn(CC(F)F)c4)cc3[nH]2)c1)N1CCN(C(=O)CC(F)(F)F)CC1` (single isomer, unassigned) [Example 87.01, 1-(4-{(1R or 1S)-1-[2-({6-[1-(2,2-difluoroethyl)-1H-pyrazol-4-yl]-1H-benzimidazol-2-yl}amino)pyridin-4-yl]ethyl}piperazin-1-yl)-3,3,3-trifluoropropan-1-one] is 2.3 nM. Under `CC(=O)N1CCN(Cc2ccnc(Nc3nc4ccc(-c5nc(C)no5)cc4[nH]3)c2)CC1` [Example 101.06, 1-{4-[(2-{[6-(3-methyl-1,2,4-oxadiazol-5-yl)-1H-benzimidazol-2-yl]amino}pyridin-4-yl)methyl]piperazin-1-yl}ethanone] stands 990 nM; under `CC(C)(C)OC(=O)N1CCN(Cc2ccnc(Nc3nc4ccc(-c5ccnc(F)c5)cc4[nH]3)c2)CC1` [Example 137.01, tert-butyl 4-[(2-{[6-(2-fluoropyridin-4-yl)-1H-benzimidazol-2-yl]amino}pyridin-4-yl)methyl]piperazine-1-carboxylate], 13 nM; under `CC(C)N(C)c1cc(-c2ccc3nc(Nc4cc(CN5CCN(C(=O)OC(C)(C)C)CC5)ccn4)[nH]c3c2)ncn1` [Example 153.01, tert-butyl 4-({2-[(6-{6-[methyl(propan-2-yl)amino]pyrimidin-4-yl}-1H-benzimidazol-2-yl)amino]pyridin-4-yl}methyl)piperazine-1-carboxylate], 14 nM. As for `Cc1c[nH]c(-c2ccc3nc(Nc4cc(CN5CCN(C(=O)C6CC6)CC5)ccn4)[nH]c3c2)n1` [Example 43.02, cyclopropyl{4-[(2-{[6-(4-methyl-1H-imidazol-2-yl)-1H-benzimidazol-2-yl]amino}pyridin-4-yl)methyl]piperazin-1-yl}methanone], the IC50 was determined as 1840 nM. The figure for `Cc1nccc(-c2ccc3nc(Nc4cc(C(C)N5CCN(C(=O)CC(F)(F)F)CC5)ccn4)[nH]c3c2)n1` (racemic) [Example 24.04.03, (rac)-3,3,3-trifluoro-1-{4-[1-(2-{[6-(2-methylpyrimidin-4-yl)-1H-benzimidazol-2-yl]amino}pyridin-4-yl)ethyl]piperazin-1-yl}propan-1-one] is 12.4 nM. In the case of `COc1c(-c2ccc3nc(Nc4cc(CN5CCN(C(=O)CC(F)(F)F)CC5)ccn4)[nH]c3c2)ncnc1N(C)C` [Example 107.01.03, 1-(4-{[2-({6-[6-(dimethylamino)-5-methoxypyrimidin-4-yl]-1H-benzimidazol-2-yl}amino)pyridin-4-yl]methyl}piperazin-1-yl)-3,3,3-trifluoropropan-1-one], the IC50 came out at 13 nM.

On to `COc1nnccc1-c1ccc2nc(Nc3cc(CN4CCN(C(=O)C5CC5)CC4)ccn3)[nH]c2c1` [Example 46.01, cyclopropyl{4-[(2-{[6-(3-methoxypyridazin-4-yl)-1H-benzimidazol-2-yl]amino}pyridin-4-yl)methyl]piperazin-1-yl}methanone], for which the IC50 was found to be 32.5 nM. For `COc1c(NC2CCC2)ncnc1-c1ccc2nc(Nc3cc(C(C)N4CCN(C(=O)C5CC5)CC4)ccn3)[nH]c2c1` (single isomer, unassigned) [Example 114.03, (4-{(1R or 1S)-1-[2-({6-[6-(cyclobutylamino)-5-methoxypyrimidin-4-yl]-1H-benzimidazol-2-yl}amino)pyridin-4-yl]ethyl}piperazin-1-yl)(cyclopropyl)methanone], the IC50 is 8.07 nM.

For `CN(C)c1ncnc(-c2ccc3nc(Nc4cc(CN5CCN(C(=O)OC(C)(C)C)CC5)ccn4)[nH]c3c2)c1Cl` [Example 179.01, tert-butyl 4-{[2-({6-[5-chloro-6-(dimethylamino)pyrimidin-4-yl]-1H-benzimidazol-2-yl}amino)pyridin-4-yl]methyl}piperazine-1-carboxylate], the IC50 amounted to 3010 nM.

For the compound `CN(c1cc(-c2ccc3nc(Nc4cc(CN5CCN(C(=O)CC(F)(F)F)CC5)ccn4)[nH]c3c2)ncn1)C1CCC1` [Example 156.02, 1-[4-({2-[(6-{6-[cyclobutyl(methyl)amino]pyrimidin-4-yl}-1H-benzimidazol-2-yl)amino]pyridin-4-yl}methyl)piperazin-1-yl]-3,3,3-trifluoropropan-1-one], the IC50 is 9.3 nM. On to `Cc1noc(-c2ccc3nc(Nc4cc(CN5CCN(c6c(Cl)cncc6Cl)CC5)ccn4)[nH]c3c2)n1` [Example 101.23, N-(4-{[4-(3,5-dichloropyridin-4-yl)piperazin-1-yl]methyl}pyridin-2-yl)-6-(3-methyl-1,2,4-oxadiazol-5-yl)-1H-benzimidazol-2-amine], for which the IC50 is 280 nM.

Take `COCCOCCS(=O)(=O)N1CCN(Cc2ccnc(Nc3nc4ccc(-c5ncncc5OC)cc4[nH]3)c2)CC1` [Example 35.01.11, N-{4-[(4-{[2-(2-methoxyethoxy)ethyl]sulfonyl}piperazin-1-yl)methyl]pyridin-2-yl}-6-(5-methoxypyrimidin-4-yl)-1H-benzimidazol-2-amine]: the IC50 came to 28.6 nM.

For the compound `CC(C)N(C)c1cc(-c2ccc3nc(Nc4cc(CN5CCN(C(=O)C6CC6)CC5)ccn4)[nH]c3c2)ncn1` [Example 153.03, cyclopropyl[4-({2-[(6-{6-[methyl(propan-2-yl)amino]pyrimidin-4-yl}-1H-benzimidazol-2-yl)amino]pyridin-4-yl}methyl)piperazin-1-yl]methanone], the IC50 was found to be 5 nM. Under `COc1c(-c2ccc3nc(Nc4cc(C(C)N5CCN(C(=O)C6CC6)CC5)ccn4)[nH]c3c2)ncnc1N1CCC1` (single isomer, unassigned) [Example 111.02, (4-{(1R or 1S)-1-[2-({6-[6-(azetidin-1-yl)-5-methoxypyrimidin-4-yl]-1H-benzimidazol-2-yl}amino)pyridin-4-yl]ethyl}piperazin-1-yl)(cyclopropyl)methanone] stands 1 nM. Under `O=C(CC(F)(F)F)N1CCN(Cc2ccnc(Nc3nc4ccc(-c5ccncc5OCC(F)(F)F)cc4[nH]3)c2)CC1` [Example 05.01, 3,3,3-trifluoro-1-(4-{[2-({6-[3-(2,2,2-trifluoroethoxy)pyridin-4-yl]-1H-benzimidazol-2-yl}amino)pyridin-4-yl]methyl}piperazin-1-yl)propan-1-one] stands 52.2 nM. Consider `CC(c1ccnc(Nc2nc3ccc(-c4cnn(CC5CC5(C)C)c4)cc3[nH]2)c1)N1CCN(C(=O)OC(C)(C)C)CC1` (single isomer, unassigned) [Example 67.01, tert-butyl 4-[(1R or 1S)-1-(2-{[6-(1-{[(1RS)-2,2-dimethylcyclopropyl]methyl}-1H-pyrazol-4-yl)-1H-benzimidazol-2-yl]amino}pyridin-4-yl)ethyl]piperazine-1-carboxylate], for which the IC50 was 46 nM.
